Earlier results as cited in patent publication US20060009468A1, “Method for treatment of cancer” (priority 2004, published 2006).

What was measured:
PANC-1 cells = conditions: after 72 hrs of exposure
MIA PaCa-2 cells = conditions: after 72 hrs of exposure

With `N=C(N)NOCC[C@H](N)C(=O)O` [L-canavanine, L-Canavanine] as the compound, how does the “increase of the percentage of cells in the radiosensitive G2/M phase of the cell cycle, compared to untreated cells” value (PANC-1 cells) read?
The value was 6 fold.

What about the “increase of the percentage of cells in the radiosensitive G2/M phase of the cell cycle, compared to untreated cells” value (MIA PaCa-2 cells) of the same compound?
The value was 4 fold.
